One series concerns osteoarthritic pain. Particulars: intra-articular injection; cited from earlier work.
The conditions of series [1]: in vivo; cited from earlier work.
The nature of series [2]: Freeze fracture microscopy (FF-TEM) of the compositions. The series is classed as physicochemical. Particulars: freeze-fracture transmission electron microscope. The method, then:
The compositions were subsequently examined using a freeze-fracture transmission electron microscope (FF-TEM). FF-TEM samples of each formulation were prepared in accordance with techniques described in chapter 5 of “Low Temperature Microscopy and Analysis” by Patrick Echlin (1992). The sample was mounted between thin metal sheets and rapidly cooled with liquid propane to −196° C. The sample was then transferred under liquid nitrogen to a pre-cooled cold stage of a Balzers BAF-301 high vacuum freeze-etch unit (Techno Trade International, Lichtenstein). The sample was fractured at low temperature and etched at −150° C. to remove a surface layer of water. The fracture faces were shadowed at an angle of 45° with platinum to create selective electron contrast. A thin layer of carbon was deposited over the entire fracture surface to create a continuous replica. The replicas were then examined using a JEOL 100CX2 electron microscope (Japanese Electronic Optical Laboratories, Japan).

For the molecule `CCCCCCCCCCCCCCCC(=O)OC[C@H](COP(=O)([O-])OCC[N+](C)(C)C)OC(=O)CCCCCCCCCCCCCCC` [DPPC, 1,2-dipalmitoyl-sn-glycero-3-phosphocholine], the pain relief result with osteoarthritic pain is reported as “reduce osteoarthritic pain”. Consider Hyaluronic acid, for which the “overall turnover rate t1/2” value in series [1] is 0.5 to a few. In series [2], the “Structures seen by FF-TEM” value is “presence of string like structures”.

Values taken from US20050123593A1, “Liposomal encapsulation of glycosaminoglycans for the treatment of arthritic joints” (priority 2001, published 2005).
